Results on five molecules are retold here after US20240200050A1, “AMINOACYL TRANSFER RNA SYNTHETASES” (Trustees of Tufts College, priority 2021, published 2024).

The test system of test [1] is ncAA-substituted synthetic antibody clones. As to the kind of experiment: UV-mediated photocrosslinking of ncAA-substituted synthetic antibody clones on the yeast surface. Particulars: identical sets of crosslinking conditions. The procedure:
(§1) Experiments were undertaken to expand the tools available for genetically encoding crosslinkable ncAAs in proteins produced in yeast. As described in the above examples, a large number of aminoacyl-tRNA synthetase (aaRS) variants were discovered that support translation with a broad set of ncAAs. Here, several of these aaRSs were evaluated alongside previously described variants to evaluate their support of protein translation with the ncAAs O-(2-bromoethyl)tyrosine (Obey), 4-benzoyl-1-phenylalanine (Bpa), or N^6-((2-(3-methyl-3H-diazirin-3-yl)ethoxy)carbonyl)-L-lysine (Photo-Lysine, Phk) (FIG. 12A). Although none of these ncAAs were used in any of the screening efforts described in the above Examples. several variants from the screens were nevertheless identified that supported translation at moderate to high efficiencies with Obey and Phk. […] The potential utility of these spontaneously crosslinkable and photocrosslinkable ncAAs was also investigated. […] The display and binding activities of these peptides were confirmed. […] For the cases of Phk and Bpa, photocrosslinkability on the yeast surface was investigated utilizing ncAA-substituted synthetic antibody clones and alongside AzF-substituted clones known to undergo UV-mediated crosslinking.

In another test the test system is antigen. As to the kind of experiment: Antigen binding of yeast-displayed synthetic antibody fragments substituted with ncAAs. The conditions noted are these: ncAA incorporated into yeast-displayed synthetic antibody fragments. The procedure: as §1
The next test addresses streptavidin (Streptomyces avidinii, UniProt P22629). As to the kind of experiment: Display and binding of ncAA-substituted anti-streptavidin peptides on the yeast surface. The procedure: as §1

SMILES strings stand for the structures.

streptavidin, sequence (P22629 25-183, species assumed): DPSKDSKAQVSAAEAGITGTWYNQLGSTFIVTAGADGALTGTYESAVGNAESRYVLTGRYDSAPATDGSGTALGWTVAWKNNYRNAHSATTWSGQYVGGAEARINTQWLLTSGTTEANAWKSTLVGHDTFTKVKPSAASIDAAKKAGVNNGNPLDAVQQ

In the case of `[N-]=[N+]=Nc1ccc(C[C@H](N)C(=O)O)cc1` [AzF, p-azido-L-phenylalanine], in test [1], the “crosslinking on the yeast surface (in words)” value (from here on “crosslinking”) was “clear evidence”.
For the molecule `N[C@@H](Cc1ccc(C(=O)c2ccccc2)cc1)C(=O)O` [Bpa, 4-benzoyl-1-phenylalanine], the “crosslinking” value in test [1] is reported as “clear evidence”. In addition, the “antigen binding of ncAA-substituted constructs (in words)” value (“antigen binding” for short) with antigen is on record as “retained antigen binding”.
`C#CCOc1ccc(C[C@H](N)C(=O)O)cc1` [OPG, p-propargyloxy-L-phenylalanine]: the “display and binding activities of ncAA-substituted peptides (in words)” value at streptavidin is reported as “confirmed”.
On to `N[C@@H](Cc1ccc(OCCBr)cc1)C(=O)O` [Obey, O-(2-Bromoethyl)-L-tyrosine], for which, in the test with antigen, the “antigen binding” value was “retained antigen binding”. Moreover, the “display and binding activities of ncAA-substituted peptides (in words)” value at streptavidin is listed as “confirmed”.
Turning to `CC1(CCOC(=O)NCCCC[C@H](N)C(=O)O)N=N1` [Phk, N^6-((2-(3-methyl-3H-diazirin-3-yl)ethoxy)carbonyl)-L-lysine], in test [1], the “crosslinking” value is “did not appear to undergo detectable crosslinking”. Also, the “antigen binding” value in the test on antigen is given as “retained antigen binding”.
